IC50 and inhibition data for nine molecules are collected here from patent US20070161648A1, “Substituted dihydro-isoindolones useful in treating kinase disorders” (priority 2005, published 2007).

One assay has as its target T1, VEGF-R2 kinase domain (Rattus norvegicus, UniProt O08775).
T1 construct: polyhistidine (N)
Description: VEGF-R2 screening assay (33P-ATP FlashPlate kinase assay). The format is biochemical. As to conditions: for IC50: 10 μM ATP. Here is the method: (§1) 70 μL of the kinase reaction mixture was dispensed into the well of a streptavidin coated FlashPlate™ (Cat. # SMP103, NEN, Boston, Mass.).
(§2) Test compound stock in 100% DMSO (1 μL) was added to the wells resulting in a final concentration of 1% DMSO in the reaction with a 100 μL final reaction volume. Each enzyme was diluted in 50 mM Tris-HCl pH=8.0, 0.1% BSA and 30 μL was added to each well to initiate the reaction. The reaction was incubated for one hour at 30° C. At the end of the 1 hr incubation, the reaction was terminated by aspirating the mixture from the plate and washing the wells twice with PBS containing 100 mM EDTA. The biotinylated peptide substrate became immobilized on the Flashplate™ and the incorporation of ^33P-γ-ATP was measured by reading the plate on a scintillation counter. Inhibition of the enzymatic activity was measured by observing a reduced amount of ^33P-γ-ATP incorporated into the immobilized peptide.
The assay used 150 ng of the N-terminal biotinylated peptide biotin-[…]-amide (VEGF-R2) per well.
(§3) A maximum and minimum signal for the assay was determined on each plate. The percent inhibition of a test compound was calculated according to the formula: [formula]

Another assay has as its target T2, Aurora-A (Mus musculus, UniProt P97477).
T2 construct: followed by the full length protein encoding the murine Aurora-A; polyhistidine (N); made in house; host or cells: Sf9 insect cells
T2 sequence (P97477 1-395): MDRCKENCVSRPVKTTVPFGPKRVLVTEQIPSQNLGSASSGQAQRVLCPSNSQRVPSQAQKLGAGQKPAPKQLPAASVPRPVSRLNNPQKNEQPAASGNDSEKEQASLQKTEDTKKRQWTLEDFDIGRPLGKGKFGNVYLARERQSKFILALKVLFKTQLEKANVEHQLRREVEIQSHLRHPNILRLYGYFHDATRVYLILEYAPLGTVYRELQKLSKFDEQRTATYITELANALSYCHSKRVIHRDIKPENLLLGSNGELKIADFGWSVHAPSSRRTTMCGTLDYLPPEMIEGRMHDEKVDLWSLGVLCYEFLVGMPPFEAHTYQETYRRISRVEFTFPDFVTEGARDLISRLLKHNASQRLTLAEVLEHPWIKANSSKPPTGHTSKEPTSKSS
Nature of the assay: Aurora-A screening assay (33P-ATP FlashPlate kinase assay). The following applies: for IC50: 10 μM ATP. The format is biochemical, murine. Here is the method:
as §1, §2
Aurora-A is a fusion protein containing a polyhistidine tag at the N terminus followed by the full length protein encoding the murine Aurora-A (Accession number GB BC014711) expressed and purified from sf9 insect cells. The assay used 400 ng of the N-terminal biotinylated peptide biotin-[…]-amide (Aurora-A) per well.
as §3

The subject of assay [1] is HeLa cervical adenocarcinoma. Description: Cell proliferation inhibition assay (14C-thymidine incorporation), HeLa. The following applies: Homo sapiens. The format is cell-based. The source says: (§4) The ability of a test compound to inhibit unregulated cell proliferation may be determined by measuring incorporation of ^14C-labelled thymidine into newly synthesized DNA within cell lines derived from carcinomas originating from several tissues. Accordingly, the effect of a test compound on proliferation of cells with a variety of phenotypes may be determined.
(§5) Carcinoma cell lines used include the HeLa cervical adenocarcinoma from the American Type Culture Collection (ATCC Cat. #CCL2), A375 malignant melanoma (ATCC Cat. #CRL-1619) and HCT-116 colon carcinoma (ATCC Cat. #CCL-247).
(§6) The carcinoma cells are trypsinized and counted. The cells (3000-8000 count) are added to each well of a 96-well CytoStar tissue culture treated scintillating microplate (Amersham #RPNQO160) in complete medium (100 μL) and the plate is then incubated in complete medium for 24 hrs at 37° C. in an inert atmosphere containing 5% CO2.
(§7) Test compound (1 μL) in 100% DMSO is added to the plate test-wells with DMSO only added to control-wells. The plate is incubated in complete medium for a second 24 hr period at 37° C. in an atmosphere containing 5% CO2.
(§8) An aliquot of a solution of Methyl ^14C-thymidine (56 mC/mmol) (NEN #NEC568 or Amersham #CFA532) and complete medium (20 uL to provide 0.2 μCi/well) is then added to each well and the plate is incubated for a third 24 hr period at 37° C. in an atmosphere containing 5% CO2.
(§9) The plate contents are then discarded, the plate is washed twice with PBS (200 μL) and then PBS (200 μL) is added to each well. The plate is sealed and the degree of methyl ^14C-thymidine incorporation is quantified on a Packard Top Count.
(§10) For a series of test concentrations, the IC50 was derived by graphing percent inhibition against the log of the concentrations tested for a given compound with results shown in Table 2.
For orientation: Incorporation of labelled thymidine or its analogues reports DNA synthesis.

The next assay has as its system A375 malignant melanoma. Nature of the assay: Cell proliferation inhibition assay (14C-thymidine incorporation), A375. The class given is cell-based. The following applies: Homo sapiens, A-375.
Excerpt: as §4, §5, §6, §7, §8, §9, §10

The test system of a further assay is HCT-116 colon carcinoma. Nature of the assay: Cell proliferation inhibition assay (14C-thymidine incorporation), HCT116. The class given is cell-based. As to conditions: Homo sapiens.
Excerpt: as §4, §5, §6, §7, §8, §9, §10

Each structure is given as a SMILES string. Where only a bound is given, the exact number is not on record here.

T1 sequence (O08775 786-1343): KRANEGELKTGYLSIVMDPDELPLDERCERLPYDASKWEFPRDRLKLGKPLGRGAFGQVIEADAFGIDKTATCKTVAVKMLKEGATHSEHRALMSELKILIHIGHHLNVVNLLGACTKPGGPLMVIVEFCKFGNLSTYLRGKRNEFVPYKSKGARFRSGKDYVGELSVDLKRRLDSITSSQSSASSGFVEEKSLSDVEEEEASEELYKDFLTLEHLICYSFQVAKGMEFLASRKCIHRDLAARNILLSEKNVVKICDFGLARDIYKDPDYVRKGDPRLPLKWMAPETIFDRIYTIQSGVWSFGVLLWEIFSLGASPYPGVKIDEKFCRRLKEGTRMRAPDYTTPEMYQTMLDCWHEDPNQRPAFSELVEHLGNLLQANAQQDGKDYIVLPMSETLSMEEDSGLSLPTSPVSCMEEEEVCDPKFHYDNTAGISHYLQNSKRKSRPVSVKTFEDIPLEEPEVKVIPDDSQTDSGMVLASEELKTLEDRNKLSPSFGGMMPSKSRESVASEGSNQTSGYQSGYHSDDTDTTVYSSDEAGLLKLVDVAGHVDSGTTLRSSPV

Broadly, the IC50 is the midpoint of a concentration-inhibition curve. High values mean lower potency, low ones higher potency. As for `O=C1NCc2cccc(-c3cc4cc(OCCN5CCCCC5)ccc4[nH]3)c21` [Cpd 10, 7-[5-(2-piperidin-1-yl-ethoxy)-1H-indol-2-yl]-2,3-dihydro-isoindol-1-one], the concentration for half-maximal inhibition (IC50) was determined as 56 nM at VEGF-R2 kinase domain; 200 nM on Aurora-A; 4630 nM in assay [1]; 437 nM in the assay with A375 malignant melanoma; 2340 nM in the assay on HCT-116 colon carcinoma.

The inhibition is how much of the control response was suppressed. In the case of `COc1ccc2[nH]c(-c3ccc([N+](=O)[O-])c4c3C(=O)NC4)cc2c1` [Cpd 16, 7-(5-methoxy-1H-indol-2-yl)-4-nitro-2,3-dihydro-isoindol-1-one], the IC50 stood at 22.9 nM against VEGF-R2 kinase domain, 9420 nM in assay [1], 5230 nM in the assay with A375 malignant melanoma and 3090 nM in the assay with HCT-116 colon carcinoma. For the same molecule, the inhibition at 10 µM on Aurora-A (single test concentration 10 μM, read-out: Aurora-A percent inhibition) came out at 52%.

For `O=C1NCc2cccc(-c3cc4cc(OCCN5CCOCC5)ccc4[nH]3)c21` [Cpd 8, 7-[5-(2-morpholin-4-yl-ethoxy)-1H-indol-2-yl]-2,3-dihydro-isoindol-1-one], the concentration for half-maximal inhibition (IC50) worked out at 74 nM at VEGF-R2 kinase domain; 135 nM against Aurora-A; 5810 nM in assay [1]; 2700 nM with A375 malignant melanoma; 5740 nM in the assay with HCT-116 colon carcinoma.

Turning to `O=C1NCc2cccc(-c3cc4cc(OCCCN5CCC(CO)CC5)ccc4[nH]3)c21` [Cpd 2, 7-{5-[3-(4-hydroxymethyl-piperidin-1-yl)-propoxy]-1H-indol-2-yl}-2,3-dihydro-isoindol-1-one], the IC50 at VEGF-R2 kinase domain worked out at 18 nM; against Aurora-A it was 61 nM; in assay [1], 3350 nM; in the assay with A375 malignant melanoma, 763 nM; in the assay on HCT-116 colon carcinoma it was 2260 nM.

Turning to `CC(C)(C)OC(=O)n1c(-c2cccc3c2C(=O)NC3)cc2cc(O)ccc21` [Cpd 28, 5-hydroxy-2-(3-oxo-2,3-dihydro-1H-isoindol-4-yl)-indole-1-carboxylic acid tert-butyl ester], on VEGF-R2 kinase domain (single test concentration 100 μM, read-out: VEGF-R2 percent inhibition), the inhibition at 100 µM amounted to 62%. Further, the 50% inhibitory concentration (IC50) was 9350 nM at Aurora-A, 34800 nM in assay [1], 34400 nM with A375 malignant melanoma and > 10000 nM in the assay on HCT-116 colon carcinoma.

Consider `O=C1NCc2cccc(-c3cc4cc(O)ccc4[nH]3)c21` [Cpd 4, 7-(5-hydroxy-1H-indol-2-yl)-2,3-dihydro-isoindol-1-one], for which the IC50 was 119 nM on VEGF-R2 kinase domain; 90 nM on Aurora-A; 3640 nM in assay [1]; 4850 nM with A375 malignant melanoma; 6090 nM in the assay on HCT-116 colon carcinoma.

On to `O=C1NCc2cccc(-c3ccc[nH]3)c21` [Cpd 12, 7-(1H-pyrrol-2-yl)-2,3-dihydro-isoindol-1-one], for which the IC50 is 1100 nM against VEGF-R2 kinase domain; 338 nM against Aurora-A; 52600 nM in assay [1]; > 10000 nM in the assay with A375 malignant melanoma; > 100000 nM in the assay with HCT-116 colon carcinoma.

On to `COc1ccc2[nH]c(-c3cccc4c3C(=O)NC4)cc2c1` [Cpd 3, 7-(5-methoxy-1H-indol-2-yl)-2,3-dihydro-isoindol-1-one], for which the IC50 against VEGF-R2 kinase domain is 111 nM; against Aurora-A it was 70 nM; in assay [1] it was > 100000 nM; in the assay on A375 malignant melanoma, > 100000 nM; in the assay with HCT-116 colon carcinoma, > 100000 nM.

Consider `O=C1NCc2cccc(-c3cc4ccccc4[nH]3)c21` [Cpd 7, 7-(1H-indol-2-yl)-2,3-dihydro-isoindol-1-one], for which the IC50 against VEGF-R2 kinase domain came out at 144 nM; on Aurora-A, 100 nM; in assay [1], 3710 nM; with A375 malignant melanoma, 5560 nM; with HCT-116 colon carcinoma, 5040 nM.
